The values below come from patent US9828348B2, “Benzimidazole derivatives and use thereof” (priority 2013, dated 2017).

Where two headings read alike, the source gives them in different places.

In the assay the target is human Nav1.7 (Homo sapiens (Human), UniProt Q15858). Briefly: FLIPR or FLIPR TETRA sodium dye assay with KCl and test article pre-incubation. To be noted: read-out: Nav1.7 Activity (μM) FLIPR assay IC50 (μM) ± SEM. It counts as cell-based.
[1] abbreviates: recombinant human Nav1.7 in HEK293 cells, CoroNa Green sodium dye, KCl pre-incubation, veratridine and scorpion venom agonists.

By IC50 is commonly meant the midpoint of a concentration-inhibition curve.

Chain of human Nav1.7 (Q15858 with tags, fused parts or gaps limits assumed): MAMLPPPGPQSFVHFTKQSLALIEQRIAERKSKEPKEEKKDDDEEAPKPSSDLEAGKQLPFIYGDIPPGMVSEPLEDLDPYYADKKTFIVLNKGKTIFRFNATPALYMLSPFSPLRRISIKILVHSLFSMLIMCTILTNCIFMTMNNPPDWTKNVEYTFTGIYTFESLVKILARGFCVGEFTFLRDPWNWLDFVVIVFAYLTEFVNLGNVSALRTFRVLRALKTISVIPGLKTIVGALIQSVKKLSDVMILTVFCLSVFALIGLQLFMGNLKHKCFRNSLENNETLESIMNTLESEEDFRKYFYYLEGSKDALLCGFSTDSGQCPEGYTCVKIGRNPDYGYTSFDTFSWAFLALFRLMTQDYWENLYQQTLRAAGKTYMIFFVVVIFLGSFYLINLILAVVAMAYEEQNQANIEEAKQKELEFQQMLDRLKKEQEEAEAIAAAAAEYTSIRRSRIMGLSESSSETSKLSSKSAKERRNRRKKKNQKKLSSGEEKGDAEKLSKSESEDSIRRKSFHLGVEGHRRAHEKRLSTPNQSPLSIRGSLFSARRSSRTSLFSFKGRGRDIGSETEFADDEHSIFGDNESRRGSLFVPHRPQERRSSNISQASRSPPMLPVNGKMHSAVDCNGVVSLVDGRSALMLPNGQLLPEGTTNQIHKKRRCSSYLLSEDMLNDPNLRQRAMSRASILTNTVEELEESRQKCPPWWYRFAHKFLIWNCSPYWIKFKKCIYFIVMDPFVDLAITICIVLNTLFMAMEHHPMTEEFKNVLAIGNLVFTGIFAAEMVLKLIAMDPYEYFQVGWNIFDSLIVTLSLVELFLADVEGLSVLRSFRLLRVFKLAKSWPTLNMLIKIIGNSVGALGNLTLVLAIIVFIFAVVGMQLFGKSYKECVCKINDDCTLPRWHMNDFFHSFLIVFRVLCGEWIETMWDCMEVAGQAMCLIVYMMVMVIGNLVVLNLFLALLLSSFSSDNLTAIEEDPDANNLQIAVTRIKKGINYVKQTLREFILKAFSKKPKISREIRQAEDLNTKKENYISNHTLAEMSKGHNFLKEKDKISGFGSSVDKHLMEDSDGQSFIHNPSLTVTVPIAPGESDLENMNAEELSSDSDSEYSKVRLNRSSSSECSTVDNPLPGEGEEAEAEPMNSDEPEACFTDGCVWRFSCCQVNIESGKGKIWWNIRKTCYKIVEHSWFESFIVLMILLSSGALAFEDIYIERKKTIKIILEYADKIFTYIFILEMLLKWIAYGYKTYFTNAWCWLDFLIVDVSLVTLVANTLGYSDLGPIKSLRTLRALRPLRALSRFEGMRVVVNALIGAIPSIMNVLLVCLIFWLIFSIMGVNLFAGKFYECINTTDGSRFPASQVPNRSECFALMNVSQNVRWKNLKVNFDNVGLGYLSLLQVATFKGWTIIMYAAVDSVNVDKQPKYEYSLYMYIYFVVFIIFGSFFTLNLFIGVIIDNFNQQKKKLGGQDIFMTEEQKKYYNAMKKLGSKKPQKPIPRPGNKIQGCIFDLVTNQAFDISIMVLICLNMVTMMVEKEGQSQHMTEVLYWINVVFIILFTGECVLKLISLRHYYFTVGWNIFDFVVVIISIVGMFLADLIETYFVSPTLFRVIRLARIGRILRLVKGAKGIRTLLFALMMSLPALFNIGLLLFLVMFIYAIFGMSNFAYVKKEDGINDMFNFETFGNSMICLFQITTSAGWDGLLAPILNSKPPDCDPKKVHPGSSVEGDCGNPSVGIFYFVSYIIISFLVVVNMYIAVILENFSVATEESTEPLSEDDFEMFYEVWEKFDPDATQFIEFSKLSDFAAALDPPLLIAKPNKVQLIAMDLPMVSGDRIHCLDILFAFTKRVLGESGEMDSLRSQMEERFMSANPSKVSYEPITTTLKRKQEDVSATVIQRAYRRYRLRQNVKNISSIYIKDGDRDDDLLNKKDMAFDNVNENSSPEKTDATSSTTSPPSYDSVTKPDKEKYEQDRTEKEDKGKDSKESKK

Take `Fc1ccc(Oc2ccc(-n3c(C4CCOCC4)nc4ccccc43)cc2)cc1` [Compound 9, 1-(4-(4-fluorophenoxy)phenyl)-2-(tetrahydro-2H-pyran-4-yl)-1H-benzo[d]imidazole]: the IC50 under setting [1] was 0.63 ± 0.05 µM.

`Cn1cc(Cl)c(-c2nc3ccccc3n2-c2ccc(Oc3ccc(F)cc3)cc2)n1` [Compound 10, 2-(4-chloro-1-methyl-1H-pyrazol-3-yl)-1-(4-(4-fluorophenoxy)phenyl)-1H-benzo[d]imidazole]: the IC50 under setting [1] stood at 0.313 ± 0.032 µM.

In the case of `Fc1ccc(Oc2ccc(-n3c(-c4c[nH]cn4)nc4ccccc43)cc2)cc1` [Compound 11, 1-(4-(4-fluorophenoxy)phenyl)-2-(1H-imidazol-4-yl)-1H-benzo[d]imidazole], the IC50 is 0.102 ± 0.022 µM.

For `O=C1CC[C@@H](c2nc3ccccc3n2-c2ccc(Oc3ccc(F)cc3)cc2)N1` [Compound 14, (S)-5-(1-(4-(4-fluorophenoxy)-phenyl)-1H-benzo[d]imidazol-2-yl)pyrrolidin-2-one], the IC50 under setting [1] is 0.571 ± 0.07 µM.

For `Fc1ccc(Oc2ccc(-n3c(Cc4nnn[nH]4)nc4ccccc43)cc2)cc1` [Compound 15, 2-((1H-tetrazol-5-yl)methyl)-1-(4-(4-fluorophenoxy)phenyl)-1H-benzo[d]imidazole], under setting [1], the IC50 was more than 20 µM.

On to `Cc1nnc(Cc2nc3ccccc3n2-c2ccc(Oc3ccc(F)cc3)cc2)[nH]1` [Compound 16, 1-(4-(4-fluorophenoxy)phenyl)-2-((5-methyl-4H-1,2,4-triazol-3-yl)methyl)-1H-benzo[d]imidazole], for which the IC50 was determined as 0.957 ± 0.092 µM.

As to `Fc1ccc(Oc2ccc(-n3c(CCN4CCCCC4)nc4ccccc43)cc2)cc1` [Compound 17, 1-(4-(4-fluorophenoxy)phenyl)-2-(2-(piperidin-1-yl)ethyl)-1H-benzo[d]imidazole], the IC50 under setting [1] is 0.081 ± 0.009 µM.

On to `NC(=O)CN1CCC(c2nc3ccccc3n2-c2ccc(Oc3ccc(F)cc3)cc2)CC1` [Compound 23, 2-(4-(1-(4-(4-fluorophenoxy)phenyl)-1H-benzo[d]imidazol-2-yl)piperidin-1-yl)acetamide], for which, under setting [1], the IC50 is 1.49 ± 0.225 µM.

With `CCN(CC)C(=O)CN1CCC(c2nc3ccccc3n2-c2ccc(Oc3ccc(F)cc3)cc2)CC1` [Compound 24, N,N-diethyl-2-(4-(1-(4-(4-fluorophenoxy)phenyl)-1H-benzo[d]imidazol-2-yl)piperidin-1-yl)acetamide], the IC50 under setting [1] turned out to be 0.516 ± 0.029 µM.

Regarding `NC(=O)CN1CCC[C@H]1c1nc2ccccc2n1-c1ccc(Oc2ccc(F)cc2)cc1` [Compound 25, (S)-2-(2-(1-(4-(4-fluorophenoxy)phenyl)-1H-benzo[d]imidazol-2-yl)pyrrolidin-1-yl)acetamide], the IC50 under setting [1] was determined as 1.22 ± 0.035 µM.
